The assay addresses T1, human PAD4 (Homo sapiens, UniProt Q9UM07).
T1 construct: human PAD4 (NM_012387), A2-P663, was PCR amplified; His-SUMO (N, cleaved yes); made in house; host or cells: E. coli BL21(DE3)
In words: In vitro PAD4 BAEE biochemical assay. The settings on record: BAEE substrate 3 mM, 5 nM PAD4, 2 mM calcium chloride; geometric mean of multiple experiments. In outline:
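Fluorescence read-out (ex 405/em 535 nm) of isoindole formed from ammonia, o-phthalaldehyde and DTT after EDTA stop. Reaction: 5 nM PAD4, 2 mM CaCl2, 3 mM BAEE, 2 h, 25 °C, after 30 min enzyme–compound preincubation. Normalised to BB-Cl-Amidine (50 µM) and DMSO controls.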

The values that follow come from patent publication US11976083B2, “Inhibitors of peptidylarginine deiminases” (Gilead Sciences, Inc., priority 2020, dated 2024).

T1 sequence (Q9UM07 2-663): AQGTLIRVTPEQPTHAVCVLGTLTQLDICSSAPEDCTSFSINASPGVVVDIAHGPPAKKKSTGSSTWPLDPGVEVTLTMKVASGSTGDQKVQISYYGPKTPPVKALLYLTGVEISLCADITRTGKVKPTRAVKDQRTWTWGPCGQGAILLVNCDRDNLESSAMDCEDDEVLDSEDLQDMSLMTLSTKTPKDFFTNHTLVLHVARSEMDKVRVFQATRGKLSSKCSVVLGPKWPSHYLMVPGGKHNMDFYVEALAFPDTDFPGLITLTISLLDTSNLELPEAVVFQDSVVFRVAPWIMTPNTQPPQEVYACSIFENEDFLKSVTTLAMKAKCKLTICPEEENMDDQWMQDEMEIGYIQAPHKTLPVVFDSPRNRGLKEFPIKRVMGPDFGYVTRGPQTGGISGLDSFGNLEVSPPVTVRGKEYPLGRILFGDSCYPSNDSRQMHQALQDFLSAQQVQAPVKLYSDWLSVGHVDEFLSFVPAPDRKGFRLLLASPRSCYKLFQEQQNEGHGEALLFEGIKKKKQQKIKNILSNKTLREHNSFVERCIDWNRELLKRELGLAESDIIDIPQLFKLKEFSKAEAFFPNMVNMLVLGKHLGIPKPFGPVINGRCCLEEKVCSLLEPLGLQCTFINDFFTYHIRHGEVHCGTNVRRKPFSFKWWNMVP

As for `C[C@H]1NC(=O)c2cccnc2CCCCCn2c(-c3nc4cc(C(=O)N[C@H]5CNCC[C@@H]5F)c(F)cc4n3C)cc3ccc1nc32` [Example 401, 6-fluoro-~{N}-[(3~{S},4~{S})-4-fluoro-3-piperidyl]-1-methyl-2-[(2~{R})-2-methyl-4-oxo-3,9,16,22-tetrazatetracyclo[14.5.2.0^{5,10).0^{19,23}]tricosa-1(22),5(10),6,8,17,19(23),20-heptaen-17-yl]benzimidazole-5-carboxamide], the IC50 is 90 nM.

Take `C[C@H]1NC(=O)c2ccc(Cl)nc2CCCCCn2c(-c3nc4cc(C(=O)N5C[C@H](N)[C@@H]6CC[C@H]5C6)c(F)c(F)c4n3C3CC3)cc3ccc1nc32` [Example 456, (2~{R})-17-[5-[(1~{S},4~{R},5~{R})-4-amino-2-azabicyclo[3.2.1]octane-2-carbonyl]-1-cyclopropyl-6,7-difluoro-benzimidazol-2-yl]-8-chloro-2-methyl-3,9,16,22-tetrazatetracyclo[14.5.2.0^{5,10}.0^{19,23}] tricosa-1(22),5(10),6,8,17,19(23),20-heptaen-4-one]: the half-maximal inhibitory concentration (IC50) was determined as 57 nM.

Take `COc1cc(C(=O)N2C[C@H](N)[C@@H]3CC[C@H]2C3)cc2nc(-c3cc4ccc5nc4n3CCCCCc3cc(Cl)ncc3C(=O)N[C@@H]5C)n(C)c12` [Example 665, (2~{R})-17-[5-[(1~{S),4~{R}, 5~{R})-4-amino-2-azabicyclo[3.2.1]octane-2-carbonyl]-7-methoxy-1-methyl-benzimidazol-2-yl]-8-chloro-2-methyl-3,7,16,22-tetrazatetracyclo[14.5.2.0^ {5,10).0^{19,23}]tricosa-1(22),5(10),6,8,17,19(23),20-heptaen-4-one]: the half-maximal inhibitory concentration (IC50) is 26 nM.

Take `C[C@@H]1[C@H](N)CCCN1C(=O)c1cc(F)c2c(c1)nc(-c1cc3ccc4nc3n1CC(F)(F)CCC[C@@H]1C[C@H]1C(=O)N[C@@H]4C)n2[C@H]1C[C@@H]1F` [Example 835, (2~{R},5~{R},7~{R})-14-[5-[(2~{R},3~{R})-3-amino-2-methyl-piperidine-1-carbonyl]-7-fluoro-1-[(1~{S},2~{S})-2-fluorocyclopropyl]benzimidazol-2-yl]-11,11-difluoro-2-methyl-3,13,19-triazatetracyclo[11.5.2.0^ {5,7}.0^{16,20}] icosa-1(19),14,16(20), 17-tetraen-4-one]: the IC50 was determined as 16 nM.

On to `COc1cc(C(=O)N2CCC[C@@H](N)C2)cc2nc(-c3cc4ccc5nc4n3CCCCCC[C@@](C)(C(F)(F)F)C(=O)N[C@@H]5C)n(C)c12` [Example 1, (8~{R},11~{R})-17-[5-[(3~{R})-3-aminopiperidine-1-carbonyl]-7-methoxy-1-methyl-benzimidazol-2-yl]-8,11-dimethyl-8-(trifluoromethyl)-1,10,19-triazatricyclo[10.5.2.0^{15,18}]nonadeca-12(19),13,15(18),16-tetraen-9-one], for which the IC50 amounted to 104 nM.

Turning to `C[C@H]1NC(=O)[C@@H]2C[C@H]2CCCC(F)(F)Cn2c(-c3nc4cc(C(=O)N5C[C@H](N)C[C@@H](F)C5)cc(F)c4n3C3CC3)cc3ccc1nc32` [Example 640, (2~{R},5~{R},7~{R})-14-[5-[(3~{R},5~{R})-3-amino-5-fluoro-piperidine-1-carbonyl]-1-cyclopropyl-7-fluoro-benzimidazol-2-yl]-11,11-difluoro-2-methyl-3,13,19-triazatetracyclo[11.5.2.0^ {5,7}.0^{16,20}]icosa-1(19),14,16(20),17-tetraen-4-one], the IC50 came to 24 nM.

As to `COc1cc(C(=O)N2[C@H]3CC[C@@H]2[C@H](N)C3)cc2nc(-c3cc4ccc5nc4n3CCCCN(C)C(=O)N[C@@H]5C)c(C)n12` [Example 209, (9˜{R})-15-[7-[(1˜{R},2˜{R},4˜{S})-2-amino-7-azabicyclo[2.2.1]heptane-7-carbonyl]-5-methoxy-3-methyl-imidazo[1,2-a]pyridin-2-yl]-6,9-dimethyl-1,6,8,17-tetrazatricyclo[8.5.2.0^{13,16}]heptadeca-10(17),11,13(16),14-tetraen-7-one], the IC50 turned out to be 74 nM.

In the case of `COc1cc(C(=O)N2CC[C@@H](OC)[C@@H](N)C2)cc2nc(-c3cc4ccc5nc4n3CCCCCc3nccc(Cl)c3C(=O)N[C@@H]5C)n(C)c12` [Example 831, (2~{R})-17-[5-[(3~{S}, 4~{R})-3-amino-4-methoxy-piperidine-1-carbonyl]-7-methoxy-1-methyl-benzimidazol-2-yl]-6-chloro-2-methyl-3,9,16,22-tetrazatetracyclo [14.5.2.0^{5,10}.0^{19,23}] tricosa-1(22),5(10),6,8, 17,19(23),20-heptaen-4-one], the half-maximal inhibitory concentration (IC50) was 75 nM.

For `C[C@H]1NC(=O)[C@@H]2C[C@H]2CCCCCn2c(-c3nc4cc(C(=O)N[C@H]5CNCC[C@@H]5F)c(F)cc4n3CC3(C#N)CC3)cc3ccc1nc32` [Example 406, 1-[(1-cyanocyclopropyl)methyl]-6-fluoro-~{N}-[(3~{S},4~{S})-4-fluoro-3-piperidyl]-2-[(2~{R},5~{R},7~{R})-2-methyl-4-oxo-3,13,19-triazatetracyclo[11.5.2.0^{5,7}.0^{16,20}]icosa-1(19),14,16(20),17-tetraen-14-yl]benzimidazole-5-carboxamide], the IC50 worked out at 22 nM.

For `COc1cc(C(=O)N2[C@H]3CC[C@@H]2[C@H](N)C3)cc2nc(-c3cc4ccc5nc4n3C[C@H]3C[C@H]3CCCC(C)(C)C(=O)N[C@@H]5C)n(C)c12` [Example 145, (3~{S},5~{R},12~{R})-18-[5-[(1~{R},2~{R},4~{S})-2-amino-7-azabicyclo[2.2.1]heptane-7-carbonyl]-7-methoxy-1-methyl-benzimidazol-2-yl]-9,9,12-trimethyl-1,11,20-triazatetracyclo[11.5.2.0^{3,5}.0^{16,19}] icosa-13(20),14,16(19),17-tetraen-10-one], the half-maximal inhibitory concentration (IC50) came out at 58 nM.

For the compound `COc1cc(C(=O)N2C[C@H](N)[C@@H]3CC[C@H]2C3)cc2nc(-c3cc4ccc5nc4n3CC(F)(F)CCC[C@]3(F)C[C@H]3C(=O)N[C@@H]5C)n(C3CC3)c12` [Example 769, (2~{R},5~{S},7~{S})-14-[5-[(1~{S},4~{R},5~{R})-4-amino-2-azabicyclo[3.2.1]octane-2-carbonyl]-1-cyclopropyl-7-methoxy-benzimidazol-2-yl]-7,11,11-trifluoro-2-methyl-3,13,19-triazatetracyclo [11.5.2.0^{5,7}.0^{16,20}] icosa-1(19),14,16(20), 17-tetraen-4-one], the IC50 turned out to be 13 nM.

With `COc1cc(C(=O)N2CCC[C@@H](N)C2)cc2nc(-c3cc4ccc5cc4n3CCCCCCC(C)(C)C(=O)N[C@@H]5C)n(C)c12` [Example 148, (11~{R})-17-[5-[(3~{R})-3-aminopiperidine-1-carbonyl]-7-methoxy-1-methyl-benzimidazol-2-yl]-8,8,11-trimethyl-1,10-diazatricyclo [10.5.2.0^{15,18}]nonadeca-12(19),13,15(18),16-tetraen-9-one], the IC50 was determined as 45 nM.

Consider `COc1cc(C(=O)N2CC[C@@H](OC)[C@@H](N)C2)cc2nc(-c3cc4ccc5nc4n3CCCCC[C@@H]3C[C@H]3C(=O)N[C@@H]5C)n(C)c12` [Example 174, (2~{R},5~{R},7~{R})-14-[5-[(3~{S),4~{R})-3-amino-4-methoxy-piperidine-1-carbonyl]-7-methoxy-1-methyl-benzimidazol-2-yl]-2-methyl-3,13,19-triazatetracyclo[11.5.2.0^{5,7}.0^{16,20}] icosa-1(19),14,16(20),17-tetraen-4-one], for which the 50% inhibitory concentration (IC50) was determined as 80 nM.

As for `CO[C@@H]1CCN(C(=O)c2ccc3c(c2)nc(-c2cc4ccc5nc4n2CCCCCc2ccnc(C)c2C(=O)N[C@@H]5C)n3C2CC2)C[C@@H]1N` [Example 696, (2~{R})-17-[5-[(3~{S}, 4~{R})-3-amino-4-methoxy-piperidine-1-carbonyl]-1-cyclopropyl-benzimidazol-2-yl]-2,6-dimethyl-3,7,16,22-tetrazatetracyclo [14.5.2.0^{5,10}.0^{19,23}] tricosa-1(22),5(10), 6,8,17,19(23),20-heptaen-4-one], the concentration for half-maximal inhibition (IC50) was found to be 48 nM.

Regarding `COc1cc(C(=O)N2CC[C@@H](OC(F)F)[C@@H](N)C2)cc2nc(-c3cc4ccc5nc4n3CCCCCC[C@@](C)(C(F)(F)F)C(=O)N[C@@H]5C)n(C)c12` [Example 723, (8~{R},11~{R})-17-[5-[(3~ {S},4~{R})-3-amino-4-(difluoromethoxy)piperidine-1-carbonyl]-7-methoxy-1-methyl-benzimidazol-2-yl]-8,11-dimethyl-8-(trifluoromethyl)-1,10,19-triazatricyclo[10.5.2.0^ {15,18}]nonadeca-12(19), 13,15(18),16-tetraen-9-one], the concentration for half-maximal inhibition (IC50) came out at 309 nM.

On to `C[C@H]1NC(=O)[C@@H]2C[C@H]2CCCC(F)(F)Cn2c(-c3nc4cc(C(=O)N5C[C@H](N)[C@@H]6CC[C@H]5C6)cc(F)c4n3[C@H]3C[C@H]3F)cc3ccc1nc32` [Example 468, (2~{R},5~{R},7~{R})-14-[5-[(1~{S},4~{R},5~{R})-4-amino-2-azabicyclo[3.2.1]octane-2-carbonyl]-7-fluoro-1-[(1~{S},2~{R})-2-fluorocyclopropyl]benzimidazol-2-yl]-11,11-difluoro-2-methyl-3,13,19-triazatetracyclo[11.5.2.0^{5,7}.0^{16,20}] icosa-1(19),14,16(20),17-tetraen-4-one], for which the concentration for half-maximal inhibition (IC50) stood at 28 nM.

For the compound `COc1cc(C(=O)N2CCC[C@@H](N)C2)cc2nc(-c3cc4ccc5nc4n3CCCCCCCC(=O)NC5C(F)F)n(C)c12` (some centres unmarked) [Example 238, 17-[5-[(3~{R})-3-aminopiperidine-1-carbonyl]-7-methoxy-1-methyl-benzimidazol-2-yl]-11-(difluoromethyl)-1,10,19-triazatricyclo[10.5.2.0^{15,18}]nonadeca-12(19),13,15(18),16-tetraen-9-one], the IC50 stood at 87 nM.

Broadly, the IC50 is the concentration needed to halve the response being measured.
